# Measured values published in PMC12413083, “Secondary metabolites isolated from Fernandoa adenophylla (Wall. ex G.Don) steenis as multitarget inhibitors of cholinesterases for the treatment of Alzheimer’s Disease, followed by molecular docking studies” (PLOS One, 2025).
# Like-named read-outs stand apart in the source and are kept apart here.
# Tests used:
# [1] = target: T1, equine serum butyrylcholinesterase (eqBuChE) (Equus caballus, UniProt P81908); assay: biochemical
# T1 construct: equine serum (Equus caballus) BuChE (eqBuChE); purchased Sigma-Aldrich C3389; host or cells: equine serum
# Protocol: (§1) Enzymes from Electrophorus electricus (eeAChE) (Sigma-Aldrich, Cat. No. C3389) and equine serum (Equus caballus) BuChE (eqBuChE) […]. Stock solutions of the test compounds were prepared in potassium phosphate buffer (0.1 M, pH 8.0). The reaction mixture consisted of Ellman’s reagent (5,5′-dithiobis (2-nitrobenzoic acid), DTNB), enzyme (0.03 U/mL of eeAChE or eqBuChE), and the test compound. Pre-incubation was performed at 30°C for 10 minutes, followed by the addition of 1 mM acetylthiocholine iodide (ATCI) or butyrylthiocholine iodide (BTCI) as substrates. The reaction mixture was further incubated for 15 minutes. […] All assays were conducted in triplicate. IC50 values were calculated by nonlinear regression of compound concentration versus percentage inhibition.
# (§2) All experiments were performed in triplicate, and the results are expressed as SEM. IC50 values were determined using nonlinear regression analysis (GraphPad Prism). All statistical analyses were performed using GraphPad Prism version 9.5.1 (GraphPad Software, San Diego, CA, USA).
# [2] = target: T2, Electrophorus electricus acetylcholinesterase (eeAChE) (Electrophorus electricus, UniProt O42275); assay: biochemical; settings: for Selectivity Index (SI): SI = IC50 of BChE/IC50 of AChE
# T2 construct: purchased Sigma-Aldrich C3389
# Protocol: as §1, §2
# [3] = Ellman's method, mean ± SEM, n = 3, read-out: IC50 (μM) ± SEM eqBuChE
# [4] = Ellman's method, mean ± SEM, n = 3, read-out: IC50 (μM) ± SEM (eeAChE)
# T1 sequence (P81908 whole entry): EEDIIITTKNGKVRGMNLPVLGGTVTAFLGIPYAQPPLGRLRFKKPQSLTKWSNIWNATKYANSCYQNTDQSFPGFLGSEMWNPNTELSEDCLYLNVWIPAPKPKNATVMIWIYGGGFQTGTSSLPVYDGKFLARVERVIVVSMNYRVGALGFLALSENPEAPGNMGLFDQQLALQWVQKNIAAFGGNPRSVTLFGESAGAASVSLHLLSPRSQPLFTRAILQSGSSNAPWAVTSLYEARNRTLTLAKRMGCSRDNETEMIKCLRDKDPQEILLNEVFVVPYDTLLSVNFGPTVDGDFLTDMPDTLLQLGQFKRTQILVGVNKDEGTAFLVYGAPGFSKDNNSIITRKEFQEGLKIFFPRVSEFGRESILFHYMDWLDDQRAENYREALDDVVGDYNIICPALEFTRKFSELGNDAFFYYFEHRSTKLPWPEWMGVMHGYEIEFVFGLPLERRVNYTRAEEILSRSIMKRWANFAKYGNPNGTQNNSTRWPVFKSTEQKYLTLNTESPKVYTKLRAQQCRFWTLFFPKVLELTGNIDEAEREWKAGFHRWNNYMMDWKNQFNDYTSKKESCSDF
# T2 sequence (O42275 24-633): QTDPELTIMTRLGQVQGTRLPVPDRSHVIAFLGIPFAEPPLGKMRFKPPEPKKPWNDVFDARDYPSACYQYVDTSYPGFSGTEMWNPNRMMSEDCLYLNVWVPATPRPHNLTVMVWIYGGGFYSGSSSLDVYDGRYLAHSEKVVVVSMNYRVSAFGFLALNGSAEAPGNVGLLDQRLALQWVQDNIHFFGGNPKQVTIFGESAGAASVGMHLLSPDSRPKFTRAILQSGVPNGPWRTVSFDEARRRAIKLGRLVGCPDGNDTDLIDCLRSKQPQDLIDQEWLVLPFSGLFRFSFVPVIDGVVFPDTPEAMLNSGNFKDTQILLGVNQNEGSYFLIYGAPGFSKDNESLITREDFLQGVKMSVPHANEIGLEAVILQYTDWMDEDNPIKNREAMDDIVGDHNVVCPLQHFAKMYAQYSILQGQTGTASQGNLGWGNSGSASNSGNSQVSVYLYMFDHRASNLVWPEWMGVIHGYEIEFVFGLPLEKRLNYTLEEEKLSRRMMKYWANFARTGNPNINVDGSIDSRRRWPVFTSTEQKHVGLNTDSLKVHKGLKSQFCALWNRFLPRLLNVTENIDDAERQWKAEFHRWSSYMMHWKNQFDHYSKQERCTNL
SMILES,IC50 [1] [µM],IC50 [2] [µM],Selectivity Index (SI) [2],"IC50 [1, 3] [µM]","IC50 [2, 4] [µM]"
COC(=O)C1(O)c2ccccc2C(=O)C1(O)CC=C(C)C (stereo not drawn) [Indanone derivative (5)],24.2 ± 1.04,53.2 ± 1.29,0.45,–,–
"CC(C)=CCC1=C(O)C(=O)c2ccccc2C1=O [Lapachol (1), Lapachol]",68.3 ± 1.06,5.04 ± 0.24,13.6,–,–
"CC(C)=C(C)C1CC2(C)OC3=C(C(=O)c4ccccc4C3=O)C3C2C12C(=O)c1ccccc1C3(O)C2=O (stereo not drawn) [Peshawaraquinone (3), Peshawaraquinone]",–,–,9.3,8.39 ± 0.14,0.9 ± 0.04
"CC1(C)C=CC2=C(O1)C(=O)c1ccccc1C2=O [Dehydro-α-lapachone (4), Dehydro-α-lapachone]",–,–,21.1,55.6 ± 1.41,2.64 ± 0.08
"CC1(C)CCC2=C(O1)C(=O)c1ccccc1C2=O [α-Lapachone (2), α-Lapachone]",–,–,3.6,39.1 ± 0.97,11 ± 0.97
